{"source": "patent US6346535B1", "about": "“Fungicidal mixtures” (American Cyanamid Company, priority 1999, dated 2002)", "assay_type_in_all_cases": "in vivo", "key": {"[1]": {"tested_on": "Blumeria graminis f. sp. tritici on wheat", "test": "Greenhouse trial, 2 day curative, Blumeria graminis f. sp. tritici on wheat", "conditions": "Table XVII, compound alone", "method": "(§1) The trials are carried out under greenhouse (Examples 1 to 18) or field conditions (Example 19) in residual or curative applications. The fungicides are applied in single treatments, or in a combination comprising a benzophenone of formula I and a compound selected from (A) through (E) as defined above. The compounds are applied in form of an aqueous spray mix obtained from a concentrated formulation or the technical material.\n(§2) 1. Seed is planted in 6 cm diameter plastic pots and maintained in the greenhouse.\n(§3) 2. When the primary leaf is fully expanded (in the case of cereals) or several leaves are present (in the case of dicots), formulated test compounds are sprayed with a three nozzle overhead fungicide sprayer to near run-off. Alternatively, a single nozzle overhead track sprayer is used for application of the compounds to cereals at a rate of 200 liters/ha (l/ha). Plants are then allowed to air-dry.\n(§4) 3. Inoculation precedes treatment in the case of curative evaluations and follows treatment in case of residual evaluations. For inoculation of powdery mildew disease, plants are set up on greenhouse benches with bottom watering mats and inoculated by dusting them with conidia from infected plants. Between inoculation and treatment for curative evaluations and between treatment and inoculation for residual evaluations, plants are maintained in the greenhouse with bottom watering. For inoculation of non-powdery mildew diseases, an aqueous spore suspension of the pathogen is applied to the plant and the plants are kept 1-2 days in a moist infection chamber before being returned to the greenhouse where they are maintained by bottom watering.\n(§5) 4. Disease on the foliage as percent leaf area with disease symptoms/signs is evaluated about 7 days after inoculation. In the case of wheat, the tips and bases of the leaves are excluded from the evaluation. [formula]\n(§6) 1. Technical compounds are formulated in a solvent/surfactant system consisting of 5% acetone and 0.05% Tween 20 in deionized water. Compounds are dissolved in acetone prior to addition of the water; the Tween 20 can be added through either the acetone or the water. Dilutions are made using the solvent/surfactant system. Formulated compounds are prepared using deionized water.\n(§7) Assessments of the diseases took place at the indicated day after the application of the compounds. Per cent infected leaf area infected was evaluated. The efficacy of the compounds/compounds mixtures to control the diseases was calculated by using the formula given above under item 4: […]\n(§8) Synergy of a fungicide mixture was determined by comparing the actual (observed) fungicidal activity of the mixture to the expected fungicidal activity of the mixture as calculated using the COLBY formula given hereinabove.\nFungicidal Efficacy of the Mixture of Different Benzophenones+Metconazole (2 Day Curative) Against Blumeria graminis f. sp. tritici on Wheat\nThe tank mixes were obtained from technical material of the benzophenones BP-2 and BP-4 and metconazole."}, "[2]": {"tested_on": "Erysiphe cichoracearum on cucumbers", "test": "Greenhouse trial, 4 day residual, Erysiphe cichoracearum on cucumbers", "conditions": "Golovinomyces cichoracearum, 96 h, read-out: Observed Efficacy; for pest or weed control at 0.4 ppm: dose rate 0.4 ppm; for pest or weed control at 2 ppm: dose rate 2 ppm; for pest or weed control at 10 ppm: dose rate 10 ppm; for pest or weed control at 50 ppm: dose rate 50 ppm", "how_it_was_run": "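Cucumber plants were sprayed to near run-off with compounds or mixtures (5% acetone/0.05% Tween 20 aqueous). Four days later they were inoculated by dusting with Erysiphe cichoracearum conidia. Percent diseased leaf area was assessed about 7 days after inoculation, and efficacy and Colby synergy were calculated from it.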"}, "[3]": {"tested_on": "Leptosphaeria nodorum on wheat", "test": "Greenhouse trial, 4 day residual, Leptosphaeria nodorum on wheat", "conditions": "Parastagonospora nodorum, 96 h, compound alone, read-out: Observed Efficacy; for pest or weed control at 4 ppm: dose rate 4 ppm; for pest or weed control at 16 ppm: dose rate 16 ppm; for pest or weed control at 64 ppm: dose rate 64 ppm; for pest or weed control at 256 ppm: dose rate 256 ppm", "how_it_was_run": "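Wheat at full primary-leaf expansion sprayed with aqueous formulated compounds or mixtures (technical material in 5% acetone/0.05% Tween 20) to near run-off or at 200 l/ha, inoculated 4 days later with spore suspension and held 1-2 days in a moist chamber. Percent diseased leaf area scored about 7 days post-inoculation, excluding leaf tips and bases; synergy judged by Colby formula.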"}, "[4]": {"tested_on": "Puccinia recondita on wheat", "test": "Greenhouse trial, 4 day residual, Puccinia recondita on wheat", "conditions": "Puccinia recondita, 96 h, read-out: Observed Efficacy; for pest or weed control at 4 ppm: dose rate 4 ppm; for pest or weed control at 16 ppm: dose rate 16 ppm; for pest or weed control at 64 ppm: dose rate 64 ppm; for pest or weed control at 256 ppm: dose rate 256 ppm; for pest or weed control at 0.4 ppm: dose rate 0.4 ppm; for pest or weed control at 2 ppm: dose rate 2 ppm; for pest or weed control at 10 ppm: dose rate 10 ppm; for pest or weed control at 50 ppm: dose rate 50 ppm", "how_it_was_run": "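Wheat plants sprayed at primary-leaf stage with compounds, alone or in mixtures, in 5% acetone/0.05% Tween 20 water, then inoculated 4 days later with Puccinia recondita spore suspension and held 1-2 days in a moist chamber. Percent diseased leaf area scored about 7 days post-inoculation, excluding leaf tips and bases; efficacy calculated, synergy by Colby.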"}, "[5]": {"tested_on": "Pyrenophora teres on barley", "test": "Greenhouse trial, 4 day residual, Pyrenophora teres on barley", "conditions": "Pyrenophora teres, 96 h, 4 day residual, read-out: Observed Efficacy; for pest or weed control at 0.4 ppm: dose rate 0.4 ppm; for pest or weed control at 2 ppm: dose rate 2 ppm; for pest or weed control at 10 ppm: dose rate 10 ppm; for pest or weed control at 50 ppm: dose rate 50 ppm"}, "[6]": {"tested_on": "Uncinula necator on vines", "test": "Greenhouse trial, 1 day residual, Uncinula necator on vines", "conditions": "Table XVIII, compound alone", "method": "as §1, §2, §3, §4, §5, §6, §7, §8\nFungicidal Efficacy of the Mixture of BP-4+AP-4 (1 Day Residual) Against Uncinula necator on Vines\nThe tank mixes were obtained from technical material of BP-4 and AP-4. The active ingredients, the type of formulations, the observed and expected efficacies with different rates are given in Table XVIII: […]"}, "[7]": {"conditions": "Table XIV (Example 14), 4 day residual"}, "[8]": {"conditions": "Table XV (Example 15), 4 day residual"}}, "note": "Like-named read-outs stand apart in the source and are kept apart here."}
{"smiles": "COc1cc(C)c(C(=O)c2c(OC)ccc(Br)c2C)c(OC)c1OC", "note": "[BP-4, 5-bromo-2′,6-dimethyl-2,4′,5′,6′-tetramethoxybenzophenone]", "values": [{"measurement": "Observed Efficacy", "setting": "[1]; dose rate 0.67 ppm", "value": 9, "unit": "%"}, {"measurement": "Observed Efficacy", "setting": "[1]; dose rate 2 ppm", "value": 27, "unit": "%"}, {"measurement": "Observed Efficacy", "setting": "[1]; dose rate 6 ppm", "value": 42, "unit": "%"}, {"measurement": "Observed Efficacy", "setting": "[1]; dose rate 18 ppm", "value": 78, "unit": "%"}, {"measurement": "Observed Efficacy", "setting": "[1]; dose rate 54 ppm", "value": 92, "unit": "%"}, {"measurement": "pest or weed control at 1 ppm", "setting": "[2]; Table VI, compound alone, dose rate 1 ppm", "value": 1, "unit": "%"}, {"measurement": "pest or weed control at 4 ppm", "setting": "[2]; Table VI, compound alone, dose rate 4 ppm", "value": 6, "unit": "%"}, {"measurement": "pest or weed control at 16 ppm", "setting": "[2]; Table VI, compound alone, dose rate 16 ppm", "value": 51, "unit": "%"}, {"measurement": "pest or weed control at 64 ppm", "setting": "[2]; Table VI, compound alone, dose rate 64 ppm", "value": 100, "unit": "%"}, {"measurement": "pest or weed control at 0.4 ppm", "setting": "[2]; Table XI, compound alone", "value": 0, "unit": "%"}, {"measurement": "pest or weed control at 2 ppm", "setting": "[2]; Table XI, compound alone", "value": 2, "unit": "%"}, {"measurement": "pest or weed control at 10 ppm", "setting": "[2]; Table XI, compound alone", "value": 55, "unit": "%"}, {"measurement": "pest or weed control at 50 ppm", "setting": "[2]; Table XI, compound alone", "value": 96, "unit": "%"}, {"measurement": "pest or weed control at 0.4 ppm", "setting": "[2]; [7]", "value": 0, "unit": "%"}, {"measurement": "pest or weed control at 2 ppm", "setting": "[2]; [7]", "value": 0, "unit": "%"}, {"measurement": "pest or weed control at 10 ppm", "setting": "[2]; [7]", "value": 13, "unit": "%"}, {"measurement": "pest or weed control at 50 ppm", "setting": "[2]; [7]", "value": 97, "unit": "%"}, {"measurement": "pest or weed control at 4 ppm", "setting": "[3]; Table VIII", "value": 0, "unit": "%"}, {"measurement": "pest or weed control at 16 ppm", "setting": "[3]; Table VIII", "value": 0, "unit": "%"}, {"measurement": "pest or weed control at 64 ppm", "setting": "[3]; Table VIII", "value": 14, "unit": "%"}, {"measurement": "pest or weed control at 256 ppm", "setting": "[3]; Table VIII", "value": 34, "unit": "%"}, {"measurement": "pest or weed control at 4 ppm", "setting": "[3]; Table X", "value": 0, "unit": "%"}, {"measurement": "pest or weed control at 16 ppm", "setting": "[3]; Table X", "value": 10, "unit": "%"}, {"measurement": "pest or weed control at 64 ppm", "setting": "[3]; Table X", "value": 18, "unit": "%"}, {"measurement": "pest or weed control at 256 ppm", "setting": "[3]; Table X", "value": 44, "unit": "%"}, {"measurement": "pest or weed control at 4 ppm", "setting": "[4]; Table IX, compound alone", "value": 6, "unit": "%"}, {"measurement": "pest or weed control at 16 ppm", "setting": "[4]; Table IX, compound alone", "value": 4, "unit": "%"}, {"measurement": "pest or weed control at 64 ppm", "setting": "[4]; Table IX, compound alone", "value": 16, "unit": "%"}, {"measurement": "pest or weed control at 256 ppm", "setting": "[4]; Table IX, compound alone", "value": 38, "unit": "%"}, {"measurement": "pest or weed control at 4 ppm", "setting": "[4]; Table VII, compound alone", "value": 0, "unit": "%"}, {"measurement": "pest or weed control at 16 ppm", "setting": "[4]; Table VII, compound alone", "value": 0, "unit": "%"}, {"measurement": "pest or weed control at 64 ppm", "setting": "[4]; Table VII, compound alone", "value": 0, "unit": "%"}, {"measurement": "pest or weed control at 256 ppm", "setting": "[4]; Table VII, compound alone", "value": 13, "unit": "%"}, {"measurement": "pest or weed control at 0.4 ppm", "setting": "[4]; Table XII, compound alone", "value": 2, "unit": "%"}, {"measurement": "pest or weed control at 2 ppm", "setting": "[4]; Table XII, compound alone", "value": 7, "unit": "%"}, {"measurement": "pest or weed control at 10 ppm", "setting": "[4]; Table XII, compound alone", "value": 10, "unit": "%"}, {"measurement": "pest or weed control at 50 ppm", "setting": "[4]; Table XII, compound alone", "value": 31, "unit": "%"}, {"measurement": "pest or weed control at 0.4 ppm", "setting": "[4]; [8]", "value": 0, "unit": "%"}, {"measurement": "pest or weed control at 2 ppm", "setting": "[4]; [8]", "value": 0, "unit": "%"}, {"measurement": "pest or weed control at 10 ppm", "setting": "[4]; [8]", "value": 6, "unit": "%"}, {"measurement": "pest or weed control at 50 ppm", "setting": "[4]; [8]", "value": 12, "unit": "%"}, {"measurement": "pest or weed control at 0.4 ppm", "setting": "[5]; Table XIII (Example 13)", "value": 0, "unit": "%"}, {"measurement": "pest or weed control at 2 ppm", "setting": "[5]; Table XIII (Example 13)", "value": 0, "unit": "%"}, {"measurement": "pest or weed control at 10 ppm", "setting": "[5]; Table XIII (Example 13)", "value": 34, "unit": "%"}, {"measurement": "pest or weed control at 50 ppm", "setting": "[5]; Table XIII (Example 13)", "value": 58, "unit": "%"}, {"measurement": "pest or weed control at 0.4 ppm", "setting": "[5]; Table XVI (Example 16)", "value": 0, "unit": "%"}, {"measurement": "pest or weed control at 2 ppm", "setting": "[5]; Table XVI (Example 16)", "value": 0, "unit": "%"}, {"measurement": "pest or weed control at 10 ppm", "setting": "[5]; Table XVI (Example 16)", "value": 0, "unit": "%"}, {"measurement": "pest or weed control at 50 ppm", "setting": "[5]; Table XVI (Example 16)", "value": 11, "unit": "%"}, {"measurement": "Observed Efficacy", "setting": "[6]; dose rate 0.25 ppm", "value": 0, "unit": "%"}, {"measurement": "Observed Efficacy", "setting": "[6]; dose rate 0.5 ppm", "value": 21, "unit": "%"}, {"measurement": "Observed Efficacy", "setting": "[6]; dose rate 1 ppm", "value": 28, "unit": "%"}, {"measurement": "Observed Efficacy", "setting": "[6]; dose rate 2 ppm", "value": 9, "unit": "%"}, {"measurement": "Observed Efficacy", "setting": "[6]; dose rate 4 ppm", "value": 43, "unit": "%"}, {"measurement": "Observed Efficacy", "setting": "[6]; dose rate 8 ppm", "value": 42, "unit": "%"}]}
